# Assays:
# [1] = tested on: wild type mice; assay: Tail flick test, effect of morphine in wild type mice; type: in vivo; details: adult male wild type mice, 30 minutes after injection
# Text: (§1) Mice were gently held on a platform of an automated apparatus wrapped in a soft cloth. Their tails were exposed and extended in a straight line along a narrow groove. Once the tail was laying flat in the groove, the experimenter activated a high-intensity and heat producing narrow beam of light that was directed at a small spot in the tail. When the animal reached its pain threshold, a spinal reflex caused the tail to “flick” out of the light beam, automatically stopping a timer that started when the beam was activated. Each animal was tested 3 times, on different regions of the tail, and the median latency to “flick” was recorded as the nociceptive threshold. Experiments were performed blind with respect to the animals' genotype. The results are shown in FIGS. 1 and 2 in wild-type, heterozygous, and NMUR2 knock-out mice (FIG. 1) and for male and female mice (FIG. 2).
# (§2) Adult male mice were treated with the mu opiate receptor agonist morphine at either 0, 2.5, 5, or 10 mg/kg sub-cutaneously. At each dose, 4 wild type mice and 4 knock-outs were treated. Tail flick latencies were determined 30 minutes after injection of morphine or vehicle, with a maximum flick latency of 15 seconds allowed to prevent tissue damage. […] The difference between the tail flick latencies of the two genotypes at 2.5 mg/kg morphine could not be accounted for by the baseline difference in tail flick latencies normally observed between the wild types and the knock-outs, both because the difference in latency was larger, and because the enhancement of morphine analgesia is significant while the mild baseline analgesia observed in the NmUR2 knock-outs was not.
# [2] = tested on: NMUR2 knock-out mice; assay: Tail flick test, effect of morphine in NMUR2 knock-out mice; type: in vivo; details: adult male NMUR2 knock-out mice, 30 minutes after injection
# Text: as §1, §2
smiles,measurement,setting,value
CN1CC[C@]23c4c5ccc(O)c4O[C@H]2[C@@H](O)C=C[C@H]3[C@H]1C5 [morphine],analgesia (tail flick latency),[1]; 2.5 mg/kg sub-cutaneously,mild analgesia
same,analgesia (tail flick latency),[1]; 5 mg/kg sub-cutaneously,maximal analgesia
same,analgesia (tail flick latency),[1]; 10 mg/kg sub-cutaneously,maximal analgesia
same,analgesia (tail flick latency),[2]; 2.5 mg/kg sub-cutaneously,augmented analgesia
same,tail flick latency,"[2]; 2.5 mg/kg sub-cutaneously, maximum flick latency of 15 seconds allowed",15 s
same,analgesia (tail flick latency),[2]; 5 mg/kg sub-cutaneously,maximal analgesia
same,analgesia (tail flick latency),[2]; 10 mg/kg sub-cutaneously,maximal analgesia
